Data from US8802597B2, “Herbicidal pyrimidines” (E I du Pont de Nemours and Company, priority 2003, dated 2014).
Like-named read-outs stand apart in the source and are kept apart here.

Experiments:
Type in all cases: in vivo
[1] = test system: giant foxtail (Setaria faberi); test: Test A pre/postemergence; details: Setaria faberi, 240 h, read-out: Plant response rating, Foxtail, Giant; for pest or weed control at 125 g/ha: 125 g ai/ha; for pest or weed control at 500 g/ha: 500 g ai/ha
Procedure, shortened: (§1)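 Ratings: 0 = no effect, 100 = complete control, assessed visually about ten days post-treatment in a greenhouse. Applications: soil-directed preemergence spray and postemergence spray on 1- to 2-leaf plants, both using a surfactant-containing non-phytotoxic solvent formulation.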

[2] = test system: morningglory (Ipomoea spp.); test: Test A pre/postemergence; details: Ipomoea, 240 h, read-out: Plant response rating, Morningglory; for pest or weed control at 125 g/ha: 125 g ai/ha; for pest or weed control at 500 g/ha: 500 g ai/ha
Procedure, shortened: as §1

[3] = test system: redroot pigweed (Amaranthus retroflexus); test: Test A pre/postemergence; details: Amaranthus retroflexus, 240 h, read-out: Plant response rating, Pigweed; for pest or weed control at 125 g/ha: 125 g ai/ha; for pest or weed control at 500 g/ha: 500 g ai/ha
Procedure, shortened: as §1

[4] = test system: velvetleaf (Abutilon theophrasti); test: Test A pre/postemergence; details: Abutilon theophrasti, 240 h, read-out: Plant response rating, Velvetleaf; for pest or weed control at 125 g/ha: 125 g ai/ha; for pest or weed control at 500 g/ha: 500 g ai/ha
Procedure, shortened: as §1

[5] = test system: Italian ryegrass (Lolium multiflorum); test: Test C postemergence
Procedure, shortened: (§2)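 Pre: seeds planted, sprayed same day. Post: 1- to 4-leaf plants (2–18 cm). Formulation: non-phytotoxic solvent + surfactant. Greenhouse 12–14 d; visual % control vs untreated, 0–100.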

[6] = test system: blackgrass (Alopecurus myosuroides); test: Test C postemergence
Procedure, shortened: as §2

[7] = test system: canarygrass (Phalaris minor); test: Test C postemergence
Procedure, shortened: as §2

[8] = test system: downy brome (Bromus tectorum); test: Test C postemergence
Procedure, shortened: as §2

[9] = test system: green foxtail (Setaria viridis); test: Test C postemergence
Procedure, shortened: as §2

[10] = test system: wheat (Triticum aestivum); test: Test C postemergence
Procedure, shortened: as §2

[11] = test system: wild oat (Avena fatua); test: Test C postemergence
Procedure, shortened: as §2

[12] = test system: windgrass (Apera spica-venti); test: Test C postemergence
Procedure, shortened: as §2

[13] = test system: winter barley (Hordeum vulgare); test: Test C postemergence
Procedure, shortened: as §2

[14] = post-emergence, Postemergence, 0 to 100 scale (0 no effect, 100 complete control)
[15] = pre-emergence, Preemergence, 0 to 100 scale where 0 is no effect and 100 is complete control, approximately ten days

`CCOC(=O)c1nc(-c2ccc(Cl)cc2)nc(N)c1Cl` [Compound 64, ethyl 6-amino-5-chloro-2-(4-chlorophenyl)-4-pyrimidinecarboxylate] gave a pest or weed control at 125 g/ha [1, 14] of 70%, a pest or weed control at 500 g/ha [1, 14] of 80% and a pest or weed control at 125 g/ha [1, 15] of 15%. It also gave a pest or weed control at 500 g/ha [1, 15] of 70%, a pest or weed control at 125 g/ha [2, 14] of 80% and a pest or weed control at 500 g/ha [2, 14] of 95%. It also gave a pest or weed control at 125 g/ha [2, 15] of 40%, a pest or weed control at 500 g/ha [2, 15] of 70% and a pest or weed control at 125 g/ha [3, 14] of 90%. It also gave a pest or weed control at 500 g/ha [3, 14] of 100%, a pest or weed control at 125 g/ha [3, 15] of 20% and a pest or weed control at 500 g/ha [3, 15] of 100%. The pest or weed control at 125 g/ha [4, 14] was 95%, the pest or weed control at 500 g/ha [4, 14] was 100% and the pest or weed control at 125 g/ha [4, 15] was 25%. For the same compound, the pest or weed control at 500 g/ha [4, 15] was 95%, the “Plant response rating (scale of 0 to 100), Ryegrass, Italian” value ([5]; 31 g ai/ha) was 5 and the “Plant response rating, Ryegrass, Italian” value ([5]; 250 g ai/ha, scale 0 to 100) was 45. For the same compound, the pest or weed control at 62 g/ha ([5]; Lolium multiflorum, post-emergence, 62 g ai/ha, scale 0 to 100 (0 no effect, 100 complete control), read-out: Ryegrass, Italian plant response rating) was 30%, the pest or weed control at 125 g/ha ([5]; Lolium multiflorum, post-emergence, 125 g ai/ha, scale 0 to 100 (0 no effect, 100 complete control), read-out: Ryegrass, Italian plant response rating) was 35% and the “Plant response rating (scale of 0 to 100), Blackgrass” value ([6]; 31 g ai/ha) was 40. The “Plant response rating, Blackgrass” value ([6]; 250 g ai/ha, scale 0 to 100) was 50, the pest or weed control at 62 g/ha ([6]; Alopecurus myosuroides, post-emergence, 62 g ai/ha, scale 0 to 100 (0 no effect, 100 complete control), read-out: Blackgrass plant response rating) was 45% and the pest or weed control at 125 g/ha ([6]; Alopecurus myosuroides, post-emergence, 125 g ai/ha, scale 0 to 100 (0 no effect, 100 complete control), read-out: Blackgrass plant response rating) was 50%. The “Plant response rating (scale of 0 to 100), Canarygrass” value ([7]; 31 g ai/ha) was 5, the “Plant response rating, Canarygrass” value ([7]; 250 g ai/ha, scale 0 to 100) was 10 and the pest or weed control at 62 g/ha ([7]; Phalaris minor, post-emergence, 62 g ai/ha, scale 0 to 100 (0 no effect, 100 complete control), read-out: Canarygrass plant response rating) was 5%. The pest or weed control at 125 g/ha ([7]; Phalaris minor, post-emergence, 125 g ai/ha, scale 0 to 100 (0 no effect, 100 complete control), read-out: Canarygrass plant response rating) was 10%, the “Plant response rating (scale of 0 to 100), Bromegrass, Downy” value ([8]; 31 g ai/ha) was 10 and the “Plant response rating, Bromegrass, Downy” value ([8]; 250 g ai/ha, scale 0 to 100) was 20. The pest or weed control at 62 g/ha ([8]; Bromus tectorum, post-emergence, 62 g ai/ha, scale 0 to 100 (0 no effect, 100 complete control), read-out: Bromegrass, Downy plant response rating) was 15%, the pest or weed control at 125 g/ha ([8]; Bromus tectorum, post-emergence, 125 g ai/ha, scale 0 to 100 (0 no effect, 100 complete control), read-out: Bromegrass, Downy plant response rating) was 20% and the “Plant response rating (scale of 0 to 100), Foxtail, Green” value ([9]; 31 g ai/ha) was 0. The “Plant response rating, Foxtail, Green” value ([9]; 250 g ai/ha, scale 0 to 100) was 45, the pest or weed control at 62 g/ha ([9]; Setaria viridis, post-emergence, 62 g ai/ha, scale 0 to 100 (0 no effect, 100 complete control), read-out: Foxtail, Green plant response rating) was 30% and the pest or weed control at 125 g/ha ([9]; Setaria viridis, post-emergence, 125 g ai/ha, scale 0 to 100 (0 no effect, 100 complete control), read-out: Foxtail, Green plant response rating) was 40%. The “Plant response rating (scale of 0 to 100), Wheat” value ([10]; 31 g ai/ha) was 0, the “Plant response rating, Wheat” value ([10]; 250 g ai/ha, scale 0 to 100) was 10 and the plant injury at 62 g/ha ([10]; Triticum aestivum, post-emergence, 62 g ai/ha, scale 0 to 100 (0 no effect, 100 complete control), read-out: Wheat plant response rating) was 0%. For the same compound, the plant injury at 125 g/ha ([10]; Triticum aestivum, post-emergence, 125 g ai/ha, scale 0 to 100 (0 no effect, 100 complete control), read-out: Wheat plant response rating) was 10%, the “Plant response rating (scale of 0 to 100), Oat, Wild” value ([11]; 31 g ai/ha) was 5 and the “Plant response rating, Oat, Wild” value ([11]; 250 g ai/ha, scale 0 to 100) was 10. For the same compound, the pest or weed control at 62 g/ha ([11]; Avena fatua, post-emergence, 62 g ai/ha, scale 0 to 100 (0 no effect, 100 complete control), read-out: Oat, Wild plant response rating) was 5%, the pest or weed control at 125 g/ha ([11]; Avena fatua, post-emergence, 125 g ai/ha, scale 0 to 100 (0 no effect, 100 complete control), read-out: Oat, Wild plant response rating) was 10% and the “Plant response rating (scale of 0 to 100), Windgrass” value ([12]; 31 g ai/ha) was 40. The “Plant response rating, Windgrass” value ([12]; 250 g ai/ha, scale 0 to 100) was 60, the pest or weed control at 62 g/ha ([12]; Apera spica-venti, post-emergence, 62 g ai/ha, scale 0 to 100 (0 no effect, 100 complete control), read-out: Windgrass plant response rating) was 55% and the pest or weed control at 125 g/ha ([12]; Apera spica-venti, post-emergence, 125 g ai/ha, scale 0 to 100 (0 no effect, 100 complete control), read-out: Windgrass plant response rating) was 55%. For the same compound, the “Plant response rating (scale of 0 to 100), Barley” value ([13]; 31 g ai/ha) was 20, the “Plant response rating, Barley” value ([13]; 250 g ai/ha, scale 0 to 100) was 100 and the plant injury at 62 g/ha ([13]; Hordeum vulgare, post-emergence, 62 g ai/ha, scale 0 to 100 (0 no effect, 100 complete control), read-out: Barley plant response rating) was 20%.
